In patent publication US7767850B2, “S-[2-[(1-iminoethy)amino]ethyl]-2-methyl-L-cysteine maleate hydrochloride crystalline salt” (Pfizer Inc., priority 2003, dated 2010):

Experiments:
[1] = Direct compression without excipients: tablet hardness and disintegration; format: physicochemical; conditions: for tablet hardness: 100-mg compacts, no excipients
Procedure: The powder was evaluated for direct compression without any excipients. Compacts of 100-mg in weight were manufactured using an 8/32 inch (6.35-mm) round concave tooling. Tablets were compressed at various compression forces and evaluated for strength, thickness and disintegration. […] Relatively strong small tablets ( 8/32 inch), as hard as 11-kP, are possible with compression force between 900 and 1000 kg. Tablet strength reaches an apparent maximum between 900 and 1000 kg compression force. Minor adhesion to the punch and die walls were observed during compression experiments. However, the sticking was considered to be a minor problem and could easily be resolved by using an appropriate lubricant. Tablet disintegration times were also evaluated for compacts of orderly packed agglomerates of S-[2-[(1-Iminoethyl)amino]ethyl]-2-methyl-L-cysteine maleate hydrochloride crystals. Three tablets were compressed with compression forces between 500 and 600, corresponding to 8 kP tablet hardness for this material.

[2] = Powder flow, aperture flow tester; format: physicochemical
Source text: Orderly packed agglomerates of S-[2-[(1-Iminoethyl)amino]ethyl]-2-methyl-L-cysteine maleate hydrochloride crystals made in Example 20 were studied to determine its powder characteristics that are relevant to the development of a pharmaceutical composition with S-[2-[(1-Iminoethyl)amino]ethyl]-2-methyl-L-cysteine maleate hydrochloride together with a pharmaceutically acceptable carrier. Before testing, the solids were passed through 80-mesh screen corresponding to 177 micrometer opening in order to fragment some very large loose aggregates of the orderly packed agglomerates. The properties tested included powder flow characteristics, powder particle size distribution, powder bulk and tapped density and powder compressibility and compaction. Powder flow was evaluated using an aperture flow tester, measured as the smallest opening at which the powder freely flows through. The powder flow test was repeatedly successful through a 6-mm aperture opening. A powder flow of 6-mm is considered good for formulation development of S-[2-[(1-Iminoethyl)amino]ethyl]-2-methyl-L-cysteine maleate hydrochloride crystals. Successful repetition of flow through a narrower 4-mm opening was, however, dependent on how the powder was introduced to the tester.

[3] = Moisture sorption study by DVS moisture balance; format: physicochemical; conditions: 25° C., sample of Example 10
Source text: FIG. 4 is a plot of a moisture sorption study of the crystalline S-[2-[(1-Iminoethyl)amino]ethyl]-2-methyl-L-cysteine maleate hydrochloride. […] Between 70 and 9% R.H., another 58% moisture was taken up by the solids. It is presumed that at 90% R.H. the crystal structure was destroyed to produce highly hygroscopic amorphous solids. During the de-sorption cycle (from 90 to 30% R.H.), these solids transformed into a mixture of form II of the crystalline S-[2-[(1-Iminoethyl)amino]ethyl]-2-methyl-L-cysteine maleate and amorphous zwitterion with excess hydrogen chloride. Subsequent de-sorption and re-sorption behavior was very similar to form II of the crystalline S-[2-[(1-Iminoethyl)amino]ethyl]-2-methyl-L-cysteine maleate. Powder x-ray analysis on the solids at the end of the experiment confirmed the presence of both form II the crystalline S-[2-[(1-Iminoethyl)amino]ethyl]-2-methyl-L-cysteine maleate and amorphous solids.

[4] = format: physicochemical
Source text: Additionally, the presence of excess maleic acid dramatically increases the solubility.
1-Butanol was selected as the best solvent to explore the possibility of utilizing a high boiling solvent that can easily be exchanged with water from the upstream aqueous chromatography purification step. […] This process was again designed to be very similar to the DMF/acetonitrile process. Following is a description of the initial process run at the 1 L scale.

physchem = format: physicochemical
Source text: S-[2-[(1-Iminoethyl)amino]ethyl]-2-methyl-L-cysteine maleate hydrochloride crystals are birefringent with positive elongation when analyzed by polarized light microscopy.
Examples 7 and 8 only differ in the nature of agitation afforded to the system. […] The bead was agitated with a magnetic plate. […] Both the examples used 2.0 molar equivalents of maleic acid and 0.5 molar equivalent of HCl for each mole of S-[2-[(1-Iminoethyl)amino]ethyl]-2-methyl-L-cysteine. […] In Example 9, the water content of the system was 2.3% before the addition of acetonitrile, while the ratio of acetonitrile to DMF was 1.98 on weight/weight basis.

[5] = Particle size distribution by sieve analysis; format: physicochemical
Source text: (§1) Orderly packed agglomerates of S-[2-[(1-Iminoethyl)amino]ethyl]-2-methyl-L-cysteine maleate hydrochloride crystals made in Example 20 were studied to determine its powder characteristics that are relevant to the development of a pharmaceutical composition with S-[2-[(1-Iminoethyl)amino]ethyl]-2-methyl-L-cysteine maleate hydrochloride together with a pharmaceutically acceptable carrier. Before testing, the solids were passed through 80-mesh screen corresponding to 177 micrometer opening in order to fragment some very large loose aggregates of the orderly packed agglomerates. The properties tested included powder flow characteristics, powder particle size distribution, powder bulk and tapped density and powder compressibility and compaction.
Particle size distribution of the powder was measured using sieve analysis. The mean particle size distribution was calculated using the geometric mean method. […] Only 1.63% of material was considered as fines, less than 75-μm, with more than 90% within 105-250-μm. More than 75% of the material was within 105-150-μm. The tight range in the powder particle size distribution for orderly packed agglomerates is between 100 and 200-μm, which is highly desirable for the development of a pharmaceutical composition with S-[2-[(1-Iminoethyl)amino]ethyl]-2-methyl-L-cysteine maleate hydrochloride together with a pharmaceutically acceptable carrier.

[6] = Bulk and tapped powder density; format: physicochemical; conditions: orderly packed agglomerates of Example 20
Source text: as §1
Bulk powder density was evaluated as the mass of material within a 50-ml graduated cylinder.

[7] = orderly packed agglomerates of Example 20

tablet hardness ([1]; 8/32 inch, compression force between 900 and 1000 kg) | tablet hardness ([1]; compression forces between 500 and 600) | tablet disintegration time ([1]; three tablets, compression forces between 500 and 600, 8 kP hardness) | compressibility index [2, 7] | powder flow, smallest aperture opening at which the powder freely flows through ([2]; orderly packed agglomerates of Example 20, passed through 80-mesh screen) | moisture uptake ([3]; between 0 and 70% relative humidity) | further moisture taken up by the solids ([3]; between 70 and 9% R.H. as printed) | solubility in 1-butanol [4] | solubility in methanol [4] | solubility in water (in words) (physchem) | solubility (physchem; water) | fraction of fines, less than 75-μm [5, 7] | fraction of material within 105-150-μm [5, 7] | fraction of material within 105-250-μm [5, 7] | mean particle size ([5]; orderly packed agglomerates of Example 20, geometric mean method) | bulk powder density [6] | tapped density [6] | SMILES
≤ 11 kP | 8 kP | less than 2 minutes | 17.8% | 6 mm | approximately 1.5% | 58% | 0.05 wt % | 6.2 wt % | highly soluble in water | > 150 mg/mL | 1.63% | More than 75% | more than 90% | 134 micrometers | 0.41 g/mL | 0.50 g/mL | CC(=N)NCCSC[C@](C)(N)C(=O)O.Cl.O=C(O)/C=C\C(=O)O [S-[2-[(1-Iminoethyl)amino]ethyl]-2-methyl-L-cysteine maleate hydrochloride]
 |  |  |  |  |  |  |  |  | highly soluble in water |  |  |  |  |  |  |  | CC(=N)NCCSC[C@](C)(N)C(=O)O [S-[2-[(1-Iminoethyl)amino]ethyl]-2-methyl-L-cysteine]
